{
  "source": "ChEMBL document CHEMBL4340519",
  "about": "“The effects of Arctigenin-Valine ester on chemotherapy-induced myelosuppression in mice” (Bioorg Med Chem, 2019)",
  "key": {"Mus musculus [1]": {"system": "Mus musculus", "test": "Protection against CTX-induced myelosuppression in BALB/c mouse assessed as effect on PLT level at 5 mg/kg, ip administered daily for 7 days starting from 3 days post-CTX challenge measured 24 hrs post-last dose (reference value: 628.5 +/- 66.09 10^9/L)", "assay_type": "functional"}, "Mus musculus [2]": {"system": "Mus musculus", "test": "Protection against CTX-induced myelosuppression in BALB/c mouse assessed as effect on HGB level at 10 mg/kg, ip administered daily for 7 days starting from 3 days post-CTX challenge measured 24 hrs post-last dose (reference value: 113.2 +/- 6.66 g/L)", "assay_type": "functional"}, "Mus musculus [3]": {"system": "Mus musculus", "test": "Protection against CTX-induced myelosuppression in BALB/c mouse assessed as effect on HGB level at 5 mg/kg, ip administered daily for 7 days starting from 3 days post-CTX challenge measured 24 hrs post-last dose (reference value: 113.2 +/- 6.66 g/L)", "assay_type": "functional"}, "Mus musculus [4]": {"system": "Mus musculus", "test": "Protection against CTX-induced myelosuppression in BALB/c mouse assessed as effect on RBC level at 10 mg/kg, ip administered daily for 7 days starting from 3 days post-CTX challenge measured 24 hrs post-last dose (reference value: 8.63 +/- 0.68 10^12/L)", "assay_type": "functional"}, "Mus musculus [5]": {"system": "Mus musculus", "test": "Protection against CTX-induced myelosuppression in BALB/c mouse assessed as effect on RBC level at 5 mg/kg, ip administered daily for 7 days starting from 3 days post-CTX challenge measured 24 hrs post-last dose (reference value: 8.63 +/- 0.68 10^12/L)", "assay_type": "functional"}, "Mus musculus [6]": {"system": "Mus musculus", "test": "Protection against CTX-induced myelosuppression in BALB/c mouse assessed as effect on WBC level at 5 mg/kg, ip administered daily for 7 days starting from 3 days post-CTX challenge measured 24 hrs post-last dose (reference value: 10.34 +/- 1.4 10^9/L)", "assay_type": "functional"}, "Mus musculus [7]": {"system": "Mus musculus", "test": "Protection against CTX-induced myelosuppression in BALB/c mouse assessed as effect on WBC level at 10 mg/kg, ip administered daily for 7 days starting from 3 days post-CTX challenge measured 24 hrs post-last dose (reference value: 10.34 +/- 1.4 10^9/L)", "assay_type": "functional"}, "Mus musculus [8]": {"system": "Mus musculus", "test": "Protection against CTX-induced myelosuppression in BALB/c mouse assessed as effect on PLT level at 10 mg/kg, ip administered daily for 7 days starting from 3 days post-CTX challenge measured 24 hrs post-last dose (reference value: 628.5 +/- 66.09 10^9/L)", "assay_type": "functional"}, "Mus musculus [9]": {"system": "Mus musculus", "test": "(§1) Protection against CTX-induced myelosuppression in BALB/c mouse assessed as improvement in hematopoiesis by measuring increase in bone marrow nucleated cells at 5 to 10 mg/kg, ip administered daily for 7 days starting from 3 days post-CTX challenge measured 24 hrs post-last dose by inverted microscopic method", "assay_type": "functional, organism-based"}, "Mus musculus [10]": {"system": "Mus musculus", "test": "Protection against CTX-induced myelosuppression in BALB/c mouse assessed as improvement in immunity by measuring spleen index at 5 mg/kg, ip administered daily for 7 days starting from 3 days post-CTX challenge measured 24 hrs post-last dose (reference value: 8.94 +/- […])", "assay_type": "functional"}, "Mus musculus [11]": {"system": "Mus musculus", "test": "Protection against CTX-induced myelosuppression in BALB/c mouse assessed as improvement in immunity by measuring spleen index at 10 mg/kg, ip administered daily for 7 days starting from 3 days post-CTX challenge measured 24 hrs post-last dose (reference value: 8.94 +/- […])", "assay_type": "functional"}, "Mus musculus [12]": {"system": "Mus musculus", "test": "as §1, with “colonies of granulocyte macrophage” for “bone marrow nucleated cells”", "assay_type": "functional, organism-based"}, "Mus musculus [13]": {"system": "Mus musculus", "test": "as §1, with “colonies of erythroid” for “bone marrow nucleated cells”", "assay_type": "functional, organism-based"}, "Mus musculus [14]": {"system": "Mus musculus", "test": "as §1, with “colonies of megakaryocytes” for “bone marrow nucleated cells”", "assay_type": "functional, organism-based"}, "Mus musculus [15]": {"system": "Mus musculus", "test": "as §1, with “burst forming units of erythroid” for “bone marrow nucleated cells”", "assay_type": "functional, organism-based"}, "Mus musculus [16]": {"system": "Mus musculus", "test": "Protection against CTX-induced myelosuppression in BALB/c mouse assessed as improvement in hematopoiesis by decrease in granulocyte macrophage-colony stimulating factor level at 5 to 10 mg/kg, ip administered daily for 7 days starting from 3 days post-CTX challenge measured 24 hrs post-last dose by ELISA", "assay_type": "functional, organism-based"}, "Mus musculus [17]": {"system": "Mus musculus", "test": "Protection against CTX-induced myelosuppression in BALB/c mouse assessed as improvement in hematopoiesis by decrease in erythropoietin level at 5 to 10 mg/kg, ip administered daily for 7 days starting from 3 days post-CTX challenge measured 24 hrs post-last dose by ELISA", "assay_type": "functional, organism-based"}, "Mus musculus [18]": {"system": "Mus musculus", "test": "Protection against CTX-induced myelosuppression in BALB/c mouse assessed as improvement in hematopoiesis by decrease in thrombopoietin level at 5 to 10 mg/kg, ip administered daily for 7 days starting from 3 days post-CTX challenge measured 24 hrs post-last dose by ELISA", "assay_type": "functional, organism-based"}, "Mus musculus [19]": {"system": "Mus musculus", "test": "(§2) Protection against CTX-induced myelosuppression in BALB/c mouse assessed as change in hematopoietic progenitor cell cycle distribution by decrease in accumulation at G0/G1-phase at 5 to 10 mg/kg, ip administered daily for 7 days starting from 3 days post-CTX challenge measured 24 hrs post-last dose by propidium iodide staining based flow cytometry", "assay_type": "functional, organism-based"}, "Mus musculus [20]": {"system": "Mus musculus", "test": "as §2, with “increase” for “decrease”, “S-phase” for “G0/G1-phase”", "assay_type": "functional, organism-based"}, "Mus musculus [21]": {"system": "Mus musculus", "test": "as §2, with “increase” for “decrease”, “G2/M-phase” for “G0/G1-phase”", "assay_type": "functional, organism-based"}, "Mus musculus [22]": {"system": "Mus musculus", "test": "Protection against CTX-induced myelosuppression in BALB/c mouse assessed as upregulation of MEK expression at 5 to 10 mg/kg, ip administered daily for 7 days starting from 3 days post-CTX challenge measured 24 hrs post-last dose by Western blot analysis", "assay_type": "functional, organism-based"}, "Mus musculus [23]": {"system": "Mus musculus", "test": "Protection against CTX-induced myelosuppression in BALB/c mouse assessed as upregulation of phosphorylated ERK expression at 5 to 10 mg/kg, ip administered daily for 7 days starting from 3 days post-CTX challenge measured 24 hrs post-last dose by Western blot analysis", "assay_type": "functional, organism-based"}, "[24]": {"test": "Toxicity in BALB/c mouse assessed as behavioral changes at 5 to 10 mg/kg, ip administered daily for 7 days measured during compound dosing", "assay_type": "organism-based", "details": "in vivo, 168 h"}, "[25]": {"test": "Toxicity in BALB/c mouse assessed as change in appetite at 5 to 10 mg/kg, ip administered daily for 7 days measured during compound dosing", "assay_type": "organism-based", "details": "in vivo, 168 h"}, "[26]": {"test": "Toxicity in BALB/c mouse assessed as change in body temperature at 5 to 10 mg/kg, ip administered daily for 7 days measured during compound dosing", "assay_type": "organism-based", "details": "in vivo, 168 h"}, "[27]": {"test": "Toxicity in BALB/c mouse assessed as effect on appearance of shiny hair at 5 to 10 mg/kg, ip administered daily for 7 days measured during compound dosing", "assay_type": "organism-based", "details": "in vivo, 168 h"}, "Mus musculus [28]": {"system": "Mus musculus", "test": "Protection against CTX-induced toxicity in BALB/c mouse assessed as restoration of normal food intake at 5 to 10 mg/kg, ip administered daily for 7 days starting from 3 days post-CTX challenge and measured during compound dosing", "assay_type": "functional, organism-based"}, "Mus musculus [29]": {"system": "Mus musculus", "test": "Protection against CTX-induced toxicity in BALB/c mouse assessed as restoration of normal body weight at 5 to 10 mg/kg, ip administered daily for 7 days starting from 3 days post-CTX challenge and measured during compound dosing", "assay_type": "functional, organism-based"}, "Mus musculus [30]": {"system": "Mus musculus", "test": "Protection against CTX-induced toxicity in BALB/c mouse assessed as loss of depilation at 5 to 10 mg/kg, ip administered daily for 7 days starting from 3 days post-CTX challenge and measured during compound dosing", "assay_type": "functional, organism-based"}, "Mus musculus [31]": {"system": "Mus musculus", "test": "Protection against CTX-induced toxicity in BALB/c mouse assessed as loss of cool skin at 5 to 10 mg/kg, ip administered daily for 7 days starting from 3 days post-CTX challenge and measured during compound dosing", "assay_type": "functional, organism-based"}, "Mus musculus [32]": {"system": "Mus musculus", "test": "Protection against CTX-induced toxicity in BALB/c mouse assessed as loss of hematuria at 5 to 10 mg/kg, ip administered daily for 7 days starting from 3 days post-CTX challenge and measured during compound dosing", "assay_type": "functional, organism-based"}, "Mus musculus [33]": {"system": "Mus musculus", "test": "Protection against CTX-induced toxicity in BALB/c mouse assessed as loss of diarrhea at 5 to 10 mg/kg, ip administered daily for 7 days starting from 3 days post-CTX challenge and measured during compound dosing", "assay_type": "functional, organism-based"}},
  "note": "The source made the active and inactive calls. The calls are words filed in the database; no cut-off is given here.",
  "data": [
    {"smiles": "COc1ccc(C[C@H]2COC(=O)[C@@H]2Cc2ccc(OC(=O)[C@@H](N)C(C)C)c(OC)c2)cc1OC", "values": [
      {"measurement": "Activity", "setting": "Mus musculus [1]", "value": 796, "unit": "×10⁹ /L"},
      {"measurement": "Activity", "setting": "Mus musculus [2]", "value": 125.5, "unit": "g/L"},
      {"measurement": "Activity", "setting": "Mus musculus [3]", "value": 120, "unit": "g/L"},
      {"measurement": "Activity", "setting": "Mus musculus [4]", "value": 9.24, "unit": "×10¹² /L"},
      {"measurement": "Activity", "setting": "Mus musculus [5]", "value": 8.8, "unit": "×10¹² /L"},
      {"measurement": "Activity", "setting": "Mus musculus [6]", "value": 9.29, "unit": "×10⁹ /L"},
      {"measurement": "Activity", "setting": "Mus musculus [7]", "value": 8.65, "unit": "×10⁹ /L"},
      {"measurement": "Activity", "setting": "Mus musculus [8]", "value": 848, "unit": "×10⁹ /L"},
      {"measurement": "Activity", "setting": "Mus musculus [9]", "value": "Active"},
      {"measurement": "Activity index", "setting": "Mus musculus [10]", "value": 8.66, "unit": "mg/g"},
      {"measurement": "Activity index", "setting": "Mus musculus [11]", "value": 8.47, "unit": "mg/g"},
      {"measurement": "Activity", "setting": "Mus musculus [12]", "value": "Active"},
      {"measurement": "Activity", "setting": "Mus musculus [13]", "value": "Active"},
      {"measurement": "Activity", "setting": "Mus musculus [14]", "value": "Active"},
      {"measurement": "Activity", "setting": "Mus musculus [15]", "value": "Active"},
      {"measurement": "Activity", "setting": "Mus musculus [16]", "value": "Active"},
      {"measurement": "Activity", "setting": "Mus musculus [17]", "value": "Active"},
      {"measurement": "Activity", "setting": "Mus musculus [18]", "value": "Active"},
      {"measurement": "Activity", "setting": "Mus musculus [19]", "value": "Active"},
      {"measurement": "Activity", "setting": "Mus musculus [20]", "value": "Active"},
      {"measurement": "Activity", "setting": "Mus musculus [21]", "value": "Active"},
      {"measurement": "Activity", "setting": "Mus musculus [22]", "value": "Active"},
      {"measurement": "Activity", "setting": "Mus musculus [23]", "value": "Active"},
      {"measurement": "Activity", "setting": "[24]", "value": "Non-Toxic"},
      {"measurement": "Activity", "setting": "[25]", "value": "Non-Toxic"},
      {"measurement": "Activity", "setting": "[26]", "value": "Non-Toxic"},
      {"measurement": "Activity", "setting": "[27]", "value": "Non-Toxic"},
      {"measurement": "Activity", "setting": "Mus musculus [28]", "value": "Active"},
      {"measurement": "Activity", "setting": "Mus musculus [29]", "value": "Active"},
      {"measurement": "Activity", "setting": "Mus musculus [30]", "value": "Active"},
      {"measurement": "Activity", "setting": "Mus musculus [31]", "value": "Active"},
      {"measurement": "Activity", "setting": "Mus musculus [32]", "value": "Active"},
      {"measurement": "Activity", "setting": "Mus musculus [33]", "value": "Active"}
    ]}
  ]
}
